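48-hour exposure; five concentrations; linearly interpolated endpoints. GI50: concentration for 50% inhibition of growth.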 Active and inactive are the calls of the source. No stated cut-off is given here; in the data, active = GI50 up to about 1.1 µM and inactive = higher.
How the values were obtained:
Assay in all cases: DTP human tumour cell line panel, 48 h
A549 = test system: A549
ACHN = test system: ACHN
CAKI-1 = test system: CAKI-1
COLO 205 = test system: COLO 205
EKVX = test system: EKVX
HCC 2998 = test system: HCC 2998
HCT-15 = test system: HCT-15
HOP-62 = test system: HOP-62
HT-29 = test system: HT-29
IGROV-1 = test system: IGROV-1
KM12 = test system: KM12
MDA-N = test system: MDA-N
Malme-3M = test system: Malme-3M
NCI-H226 = test system: NCI-H226
NCI/ADR-RES = test system: NCI/ADR-RES
RXF 393 = test system: RXF 393
SF-539 = test system: SF-539
UACC-257 = test system: UACC-257
Hs-578T = test system: Hs-578T

Compound | GI50 (A549) | GI50 (ACHN) | GI50 (CAKI-1) | GI50 (COLO 205) | GI50 (EKVX) | GI50 (HCC 2998) | GI50 (HCT-15) [µM] | GI50 (HOP-62) | GI50 (HT-29) | GI50 (IGROV-1) | GI50 (KM12) | GI50 (MDA-N) | GI50 (Malme-3M) | GI50 (NCI-H226) | GI50 (NCI/ADR-RES) | GI50 (RXF 393) | GI50 (SF-539) | GI50 (UACC-257) | GI50 (Hs-578T)
N#CC1=C2SCCN2C(=O)C(C#N)C12CCCCC2 (stereo not given) | > 100 µM (inactive) | > 100 µM (inactive) | > 100 µM (inactive) | > 100 µM (inactive) | > 100 µM (inactive) | > 100 µM (inactive) | > 100 | > 100 µM (inactive) | > 100 µM (inactive) | > 100 µM (inactive) | > 100 µM (inactive) | > 100 µM (inactive) | > 100 µM (inactive) | > 100 µM (inactive) | > 100 µM (inactive) | 59.4 µM (inactive) | > 100 µM (inactive) | > 100 µM (inactive) | –
Oc1ccc(/C=C/c2cccc(/C=C/c3ccc(O)c(O)c3)n2)cc1O | 5.25 µM (inactive) | 5.14 µM (inactive) | 13.8 µM (inactive) | 14.2 µM (inactive) | 11.7 µM (inactive) | 16.5 µM (inactive) | 22.7 | 22.2 µM (inactive) | 10.8 µM (inactive) | 6.15 µM (inactive) | 8.91 µM (inactive) | 7.53 µM (inactive) | – | – | 5.48 µM (inactive) | – | 3.02 µM (inactive) | 13.9 µM (inactive) | 54.5 µM (inactive)
CC(=O)Oc1cc(Cl)c(OC(C)=O)c2c(OC(C)=O)c(C)c(O[Si](C)(C)C(C)(C)C)cc12 | 5.3 µM (inactive) | – | 16 µM (inactive) | 15.1 µM (inactive) | 18.7 µM (inactive) | 4.46 µM (inactive) | 4.76 | 19.1 µM (inactive) | – | 3.64 µM (inactive) | 12.8 µM (inactive) | – | – | – | – | 3.28 µM (inactive) | 14.5 µM (inactive) | 3.23 µM (inactive) | –
COc1ccc(-n2c(N)c(C#N)c(C#N)c2-c2ccccc2)cc1 | > 100 µM (inactive) | > 100 µM (inactive) | > 100 µM (inactive) | > 100 µM (inactive) | > 100 µM (inactive) | > 100 µM (inactive) | > 100 | 87.7 µM (inactive) | > 100 µM (inactive) | 24.2 µM (inactive) | > 100 µM (inactive) | – | > 100 µM (inactive) | 13.8 µM (inactive) | > 100 µM (inactive) | 23.8 µM (inactive) | 11 µM (inactive) | > 100 µM (inactive) | 6.58 µM (inactive)
N#Cc1ccc(C2NN=CC23C(=O)c2ccccc2OC3c2ccccc2)cc1 (stereo not given) | 29.4 µM (inactive) | 34.7 µM (inactive) | 34 µM (inactive) | 18.8 µM (inactive) | 21.1 µM (inactive) | 35.7 µM (inactive) | 25.4 | 54.6 µM (inactive) | 31.7 µM (inactive) | 50.6 µM (inactive) | 36.4 µM (inactive) | – | 53.7 µM (inactive) | 39.4 µM (inactive) | 31.5 µM (inactive) | 15 µM (inactive) | 42.2 µM (inactive) | 28 µM (inactive) | 30.5 µM (inactive)
Cc1ccc(S(=O)(=O)NNC(C[N+](=O)[O-])c2ccccc2)cc1 (stereo not given) | 16.7 µM (inactive) | 16.1 µM (inactive) | 22.5 µM (inactive) | 14.4 µM (inactive) | 75.5 µM (inactive) | 2.9 µM (inactive) | 15.9 | 26.7 µM (inactive) | 2.02 µM (inactive) | 7.23 µM (inactive) | 14.1 µM (inactive) | – | 29 µM (inactive) | 26.3 µM (inactive) | 54.6 µM (inactive) | 2.94 µM (inactive) | 27.1 µM (inactive) | 19.7 µM (inactive) | 44.4 µM (inactive)
COc1cccc(/C=C2\C(=O)N(C(=O)c3ccc(NC(C)=O)cc3)N=C2C)c1 | > 100 µM (inactive) | > 100 µM (inactive) | > 100 µM (inactive) | > 100 µM (inactive) | > 100 µM (inactive) | > 100 µM (inactive) | > 100 | > 100 µM (inactive) | > 100 µM (inactive) | – | – | – | > 100 µM (inactive) | > 100 µM (inactive) | – | – | > 100 µM (inactive) | > 100 µM (inactive) | –
CC(=O)Oc1c(-c2ccccc2)oc2ccccc12 | 1.51 µM (inactive) | 1.79 µM (inactive) | 1.11 µM (active) | 1.9 µM (inactive) | 2.06 µM (inactive) | 1.31 µM (inactive) | 1.99 | 2.42 µM (inactive) | 2.5 µM (inactive) | 2.08 µM (inactive) | 1.09 µM (active) | – | 2.83 µM (inactive) | 2.07 µM (inactive) | 2.66 µM (inactive) | 1.42 µM (inactive) | 1.36 µM (inactive) | 2.59 µM (inactive) | 2.36 µM (inactive)
COc1ccc(Cc2nc3cc([N+](=O)[O-])ccc3n2C[C@@H]2CCCN3CCCCC23)cc1 (stereo not given in full) | 15.8 µM (inactive) | 33.2 µM (inactive) | 19.3 µM (inactive) | 13.7 µM (inactive) | 31 µM (inactive) | 12.6 µM (inactive) | 23.4 | 19.3 µM (inactive) | 17 µM (inactive) | 17.7 µM (inactive) | 16.3 µM (inactive) | 17.7 µM (inactive) | 16.7 µM (inactive) | 31.6 µM (inactive) | 25.2 µM (inactive) | 15.4 µM (inactive) | – | 15.8 µM (inactive) | –
CC(C)(C)OC(=O)NCC(C#N)CNC(=O)OC(C)(C)C | > 100 µM (inactive) | > 100 µM (inactive) | > 10 µM (inactive) | > 100 µM (inactive) | > 100 µM (inactive) | > 100 µM (inactive) | > 100 | > 100 µM (inactive) | – | > 100 µM (inactive) | > 100 µM (inactive) | – | > 100 µM (inactive) | > 100 µM (inactive) | > 100 µM (inactive) | > 100 µM (inactive) | > 100 µM (inactive) | > 100 µM (inactive) | > 100 µM (inactive)
COC(=O)C(/C(=N\O)C(=O)Nc1cccc(Cl)c1C)c1cnc2ccccc2n1 (stereo not given) | > 100 µM (inactive) | > 100 µM (inactive) | > 100 µM (inactive) | > 100 µM (inactive) | > 100 µM (inactive) | > 100 µM (inactive) | > 100 | > 100 µM (inactive) | > 100 µM (inactive) | > 100 µM (inactive) | > 100 µM (inactive) | > 100 µM (inactive) | > 100 µM (inactive) | > 100 µM (inactive) | > 100 µM (inactive) | 92.9 µM (inactive) | > 100 µM (inactive) | > 100 µM (inactive) | –
Cc1ccc2nc(CN3CCCCC3)cc(=O)n2c1 | > 100 µM (inactive) | > 100 µM (inactive) | > 100 µM (inactive) | > 100 µM (inactive) | > 100 µM (inactive) | > 100 µM (inactive) | > 100 | > 100 µM (inactive) | > 100 µM (inactive) | > 100 µM (inactive) | > 100 µM (inactive) | – | > 100 µM (inactive) | > 100 µM (inactive) | > 100 µM (inactive) | – | > 100 µM (inactive) | > 100 µM (inactive) | > 100 µM (inactive)
C[n+]1c2ccccc2c(C(=O)Nc2ccc(S(=O)(=O)Nc3ncccn3)cc2)c2ccccc21 | > 100 µM (inactive) | > 100 µM (inactive) | > 100 µM (inactive) | > 100 µM (inactive) | 80.7 µM (inactive) | > 100 µM (inactive) | > 100 | > 100 µM (inactive) | > 100 µM (inactive) | > 100 µM (inactive) | > 100 µM (inactive) | 47.4 µM (inactive) | > 100 µM (inactive) | 37.4 µM (inactive) | 32.5 µM (inactive) | – | > 100 µM (inactive) | > 100 µM (inactive) | > 100 µM (inactive)
COCn1cnc2c(=O)n(-c3ccc(OC)cc3)c(=S)n(-c3ccc(OC)cc3)c21 | > 100 µM (inactive) | > 100 µM (inactive) | > 100 µM (inactive) | > 100 µM (inactive) | > 100 µM (inactive) | > 100 µM (inactive) | > 100 | > 100 µM (inactive) | > 100 µM (inactive) | > 100 µM (inactive) | > 100 µM (inactive) | – | – | > 100 µM (inactive) | > 100 µM (inactive) | > 100 µM (inactive) | > 100 µM (inactive) | > 100 µM (inactive) | –
O=C1C(=C(C(F)(F)Cl)C(F)(F)Cl)C2CCC1C2 (stereo not given) | 2.2 µM (inactive) | 1.84 µM (inactive) | – | 1.67 µM (inactive) | > 10 µM (inactive) | 5.31 µM (inactive) | 1.98 | > 9.16 µM (inactive) | 2.19 µM (inactive) | 1.89 µM (inactive) | 3.01 µM (inactive) | – | 1.55 µM (inactive) | > 5.38 µM (inactive) | 2.15 µM (inactive) | 1.63 µM (inactive) | 3.29 µM (inactive) | 1.9 µM (inactive) | 4.51 µM (inactive)
O=P(Oc1ccc(Cl)cc1)(Oc1ccc(Cl)cc1)N1CC1 | > 10 µM (inactive) | > 10 µM (inactive) | – | > 10 µM (inactive) | > 10 µM (inactive) | > 10 µM (inactive) | > 10 | > 10 µM (inactive) | > 10 µM (inactive) | – | > 10 µM (inactive) | > 10 µM (inactive) | > 10 µM (inactive) | > 10 µM (inactive) | > 10 µM (inactive) | – | > 10 µM (inactive) | 4.38 µM (inactive) | > 10 µM (inactive)
CC(C)(Oc1ccc(C2C[C@H]2Cl)cc1)C(=O)O (stereo not given in full) | > 100 µM (inactive) | – | > 100 µM (inactive) | > 100 µM (inactive) | > 100 µM (inactive) | – | > 100 | > 100 µM (inactive) | – | > 100 µM (inactive) | > 100 µM (inactive) | > 100 µM (inactive) | – | – | – | > 100 µM (inactive) | > 100 µM (inactive) | > 100 µM (inactive) | > 100 µM (inactive)

From ChEMBL document CHEMBL1201862, “PubChem BioAssay data set” (2004)
